The source of these data is patent publication US4959368A, “Therapeutic agent for neurological diseases” (Mitsui Petrochemical Industries Ltd., priority 1986, dated 1990).

For data set [1], the system named is mouse neuroblastoma cell line neuro-2a. Description: Activity on neuro-2a, cells with outgrown neurites. It counts as cell-based. The method, boiled down: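 Mouse neuro-2a cells in DMEM with FCS exposed to compounds for 24 h (up to 6 concentrations, triplicate runs), glutaraldehyde-fixed and methylene blue-stained. Proportion of cells bearing a neurite at least twice the cell's long diameter counted microscopically over ≥200 cells.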

A further data set concerns mice. The experiment in a line: Acute toxicity, mouse. Conditions: 24 hours. It counts as in vivo. How it is done:
(§1) The acute toxicity of the compounds of the invention was examined by the following method.
(§2) Male ddy-strain 5-week old mice and male Wistar-strain 8 week old rats, five per group, were used as experimental animals. Each of the compounds was dissolved in saline and administered perorally, and the toxicity of the compound was assessed 24 hours after the administration.

The next data set in a line: Acute toxicity, mouse. As to conditions: in vivo, po, read-out: Presumed LD50. Type of data set: in vivo. Here is the method:
as §1, §2

Data set [2] has as its system human neuroblastoma cell line GOTO. The experiment in a line: Activity on neuroblastoma cell line GOTO (cell number, number and length of neurites). Type of data set: cell-based. Conditions: for Number of cells: control 3.17. How it is done:
The biological activities in vitro of the compounds of formula (I) on cells of the nervous system were tested. The cells tested were human neuroblastoma cell line GOTO [see Sekiguchi, M., Oota, T., Sakakibara, K., Inui, N. & Fujii, G., Japan. J. Exp. Med., 49, 67-83 (1979)], and neuroblastoma cell line NB-1 [see Miyake, S., Shimo, Y., Kitamura, T., Nojyo, Y., Nakamura, T., Imkashuku, S. and Abe, T., The Autonomic Nervous System, 10, 115-120 (1973)], and mouse neuroblastoma cell line neuro-2a (Dainippon Pharmaceutical Co., Ltd.) which have been established as the cells of the nervous system. The above neuve cells were grown in an incubator at 37° C. in the presence of 5% carbon dioxide gas exponentially, and then cultivated for a certain period of time together with the compounds of formula (I).
The effect of the compounds of this invention on neuroblastoma cells was examined by the following method.
A culture medium [composed of 45% of RPMI 1640 medium, 45% modified Eagle's medium (MEM) and 10% of fetal calf serum (FCS) and containing penicillin G sodium (100 units/ml) and streptomycin sulfate (100 microgram/ml)] containing neurobalstoma cell line GOTO in the logarithmic growth period was poured in an amount of 2 ml each into polystyrene dishes (35 mm; made by Corning Co.) so that the cell concentration was 2 to 6×10^4 cells per dish, and the cells were cultured for 1 to 2 days in a carbon dioxide gas incubator containing 5% of carbon dioxide gas in air at 37° C. Then, the culture fluid was removed, and 2 ml of a fresh serum-free culture fluid (consisting of 50% of RPMI medium and 50% of MEM medium and containing penicillin G sodium and streptomycin sulfate in the same amounts as above) was added. At the same time, a presterilized PBS solution (phosphate buffered saline) of each of the test compounds in various concentrations was added to each of the dishes. After culturing for 24 hours, the number of living cells was counted. Furthermore, the culture was photographed, and from the photos, the number and length of neurites per cell were measured. The numer of living cells was counted for 3 to 6 dishes by resistance to staining with erythrosine dye. The number and length of the neurites were measured with regard to 6 photos (more than 200 cells per photo).

The term LD50 denotes the dose expected to kill half of the subjects tested.

Like-named read-outs stand apart in the source and are kept apart here.

For the compound `c1cnc(N2CCNCC2)nc1` [Compound 124], the “Cells having neurites with a length at least twice the long diameter of cell/total number of cells” value in data set [1] (Table 3 Run No. 1, 3.6 μM, control 2.2 ± 0.8) is recorded as 4.6 ± 0.5%; in data set [1] (Table 3 Run No. 1, 36 μM, control 2.2 ± 0.8), 3.8 ± 1.2%. Besides, the “Number of dead animals/number of test animals” value in the data set on mice (Table 6, 300 mg/kg p.o.) is listed as 0/5; in the data set with mice (Table 6, 500 mg/kg p.o.) it was 0/5; with mice (Table 6, 1000 mg/kg p.o.), 3/5. For the same compound, in the data set “Acute toxicity, mouse” (Table 6, p.o.), the LD50 at 24 h lay in the range of 550 to 1000 mg/kg. The Number of cells was 4.01 × 10^4 /dish in data set [2] (Table 1 Run No. 3, 0.0 μg/ml (so in the source)) and 4.10 × 10^4 /dish in data set [2] (Table 1 Run No. 3, 1 μg/ml). The “Number of neurites/cell (mean ± S.D.)” value came to 2.23 ± 0.82 neurites/cell in data set [2] (Table 1 Run No. 3, 1 μg/ml, control 1.94 ± 0.69, all *P <0.01); 2.13 ± 0.72 neurites/cell in data set [2] (Table 1 Run No. 4, 1 μg/ml, control 1.98 ± 0.74); 2.08 ± 0.69 neurites/cell in data set [2] (Table 1 Run No. 4, 10 μg/ml, control 1.98 ± 0.74); 1.96 ± 0.54 neurites/cell in data set [2] (Table 1 Run No. 5, 1 μg/ml, control 1.96 ± 0.64). Further, the “Length of neurites (mean ± S.D.)” value in data set [2] (Table 1 Run No. 3, 1 μg/ml, control 45.13 ± 22.71, all *P <0.01) was found to be 66.56 ± 22.16 μm/cell; in data set [2] (Table 1 Run No. 4, 1 μg/ml, control 54.15 ± 33.64), 72.19 ± 49.23 μm/cell; in data set [2] (Table 1 Run No. 4, 10 μg/ml, control 54.15 ± 33.64), 71.31 ± 45.67 μm/cell; in data set [2] (Table 1 Run No. 5, 1 μg/ml, control 46.41 ± 33.28) it was 52.59 ± 32.50 μm/cell. Further, the “Number of cells (mean ± S.E.)” value in data set [2] (Table 1 Run No. 4, 1 μg/ml, control 5.48 ± 1.38) is 7.22 ± 1.98 × 10^4 /dish; in data set [2] (Table 1 Run No. 4, 10 μg/ml, control 5.48 ± 1.38) it was 5.45 ± 2.61 × 10^4 /dish; in data set [2] (Table 1 Run No. 5, 1 μg/ml, control 5.30 ± 0.23) it was 4.89 ± 0.59 × 10^4 /dish.
Regarding `CN1C(=O)Cc2cnc(N3CCNCC3)nc21` [Compound 406], the “Cells having neurites with a length at least twice the long diameter of cell/total number of cells” value was determined as 16.2 ± 3.7% in data set [1] (Table 3 Run No. 4, 0.1 mM, control 3.1 ± 0.2); 29.9 ± 2.6% in data set [1] (Table 3 Run No. 4, 0.3 mM, control 3.1 ± 0.2); 44.8 ± 0.8% in data set [1] (Table 3 Run No. 4, 0.5 mM, control 3.1 ± 0.2); 10.3 ± 1.6% in data set [1] (Table 3 Run No. 7, 0.1 mM, control 2.5 ± 0.7); 22.6 ± 2.2% in data set [1] (Table 3 Run No. 7, 0.3 mM, control 2.5 ± 0.7); 40.2 ± 3.4% in data set [1] (Table 3 Run No. 7, 0.5 mM, control 2.5 ± 0.7). For the same compound, the “Cells having neurites with a length at least twice the long diameter of cell/total number of cells” value in data set [1] (Table 3 second Run No. 5, 0.03 mM, control 4.5 ± 0.3) is reported as 7.6 ± 1.8%; in data set [1] (Table 3 second Run No. 5, 0.3 mM, control 4.5 ± 0.3), 18.4 ± 3.0%; in data set [1] (Table 3 second Run No. 5, 0.5 mM, control 4.5 ± 0.3), 32.4 ± 4.3%. The “Number of dead animals/number of test animals” value with mice (Table 7, 1000 mg/kg p.o., 1000 mg/kg) is 1/5. Also, the LD50 at 24 h in “Acute toxicity, mouse” (Table 7, p.o.) was above 1000 mg/kg.
